How the values were obtained:
S. aureus = assay: combination effect of silver nanoparticles with antibiotic discs; format: cell-based, Staphylococcus aureus; settings: antibiotic disc alone; RD 5 μg, E 15 μg, TOB 10 μg, TGC 15 μg, MXF 5 μg, LEV 5 μg; Mueller-Hinton agar, 24 hours at 37° C.
Protocol: (§1) Moreover, combination effects were determined by first adjusting the turbidity of the previously mentioned bacterial strains to 0.5 MacFarland standards (10^8 CFU/mL), and swabbing the strains on Mueller-Hinton agar. Antibiotic discs alone were used as controls, respectively. […] To study the combination effect, 30 μl of the exemplary silver nanoparticles were loaded on the antibiotics discs then placed on the swabbed medium. The plates were incubated for 24 hours at 37° C. The diameters of the inhibition zones were measured and reported in millimeters.

[1] = tested on: Proteus vulgaris (ATCC 49132); assay: agar well diffusion assay, inhibition zone; format: cell-based; settings: standard antibiotic disc AMC (30), control
Protocol: (§2) Antibacterial activity of the exemplary silver nanoparticles, prepared as described above (except that centrifuging and drying were omitted, i.e., antimicrobial testing was performed without removing the silver nanoparticles from the red sand extract), was evaluated against pathogenic bacterial reference strains of Acinetobacter baumannii (ATCC 19606), Salmonella typhimurium (ATCC 14028), Escherichia coli (ATCC 35218), Pseudomonas aeruginosa (27853 AT), Staphylococcus aureus (25923 AT) and Proteus vulgaris (ATCC 49132) using an agar well diffusion assay. In particular, the antibacterial activity against each strain was determined by measuring the inhibition zone. Standard antibiotic discs, including Gentamycin (CN10 μg), Augmantin (AMC 30 μg), and Ciprofloxacin (CIP 5 μg), were used as controls.

A. baumannii = assay: combination effect of silver nanoparticles with antibiotic discs; format: cell-based, Acinetobacter baumannii; settings: antibiotic disc alone; F 100 μg, FOS 50 μg, TE 30 μg, FEP 30 μg, MXF 5 μg, LEV 5 μg; Mueller-Hinton agar, 24 hours at 37° C.
Protocol: as §1

P. vulgaris = assay: as above; format: cell-based, Proteus vulgaris; settings: antibiotic disc alone; F 100 μg, FOS 50 μg, TE 30 μg, FEP 30 μg, MXF 5 μg, LEV 5 μg; Mueller-Hinton agar, 24 hours at 37° C.
Protocol: as §1

S. typhimurium = assay: as above; format: cell-based, Salmonella typhimurium; settings: antibiotic disc alone; F 100 μg, FOS 50 μg, TE 30 μg, FEP 30 μg, MXF 5 μg, LEV 5 μg; Mueller-Hinton agar, 24 hours at 37° C.
Protocol: as §1

E. coli = assay: as above; format: cell-based, Escherichia coli; settings: antibiotic disc alone; F 100 μg, FOS 50 μg, TE 30 μg, FEP 30 μg, MXF 5 μg, LEV 5 μg; Mueller-Hinton agar, 24 hours at 37° C.
Protocol: as §1

[2] = tested on: Acinetobacter baumannii (ATCC 19606); assay: agar well diffusion assay, inhibition zone; format: cell-based; settings: standard antibiotic disc CIP (5), control
Protocol: as §2

[3] = tested on: Pseudomonas aeruginosa (27853 AT); assay: agar well diffusion assay, inhibition zone; format: cell-based; settings: standard antibiotic disc CIP (5), control
Protocol: as §2

[4] = tested on: Escherichia coli (ATCC 35218); assay: agar well diffusion assay, inhibition zone; format: cell-based; settings: standard antibiotic disc CIP (5), control
Protocol: as §2

P. aeruginosa = assay: combination effect of silver nanoparticles with antibiotic discs; format: cell-based, Pseudomonas aeruginosa; settings: antibiotic disc alone; F 100 μg, FOS 50 μg, TE 30 μg, FEP 30 μg, MXF 5 μg, LEV 5 μg; Mueller-Hinton agar, 24 hours at 37° C.
Protocol: as §1

[5] = tested on: Salmonella typhimurium (ATCC 14028); assay: agar well diffusion assay, inhibition zone; format: cell-based; settings: standard antibiotic disc CN (10), control
Protocol: as §2

[6] = tested on: Staphylococcus aureus (25923 AT); assay: agar well diffusion assay, inhibition zone; format: cell-based; settings: standard antibiotic disc CN (10), control
Protocol: as §2

CN(C)c1cc(NC(=O)CNC(C)(C)C)c(O)c2c1C[C@H]1C[C@H]3[C@H](N(C)C)C(O)=C(C(N)=O)C(=O)[C@@]3(O)C(O)=C1C2=O [Tigecycline]
C: inhibition zone of the antibiotic alone as a control (S. aureus): 24 mm

Augmantin [AMC]
Diameter of inhibition zone, standard antibiotic disc [1]: AMC (30) = 32 mm

O=C1CN(/N=C/c2ccc([N+](=O)[O-])o2)C(=O)N1 [Nitrofurantoin]
C: inhibition zone of the antibiotic alone as a control (A. baumannii): 11 mm | C: inhibition zone of the antibiotic alone as a control (P. vulgaris): 10 mm | C: inhibition zone of the antibiotic alone as a control (S. typhimurium): 23.5 mm | C: inhibition zone of the antibiotic alone as a control (E. coli): 21.5 mm

O=C(O)c1cn(C2CC2)c2cc(N3CCNCC3)c(F)cc2c1=O [CIP, Ciprofloxacin]
Diameter of inhibition zone, standard antibiotic disc [2]: CIP (5) = 25 mm | Diameter of inhibition zone, standard antibiotic disc [3]: CIP (5) = 31 mm | Diameter of inhibition zone, standard antibiotic disc [4]: CIP (5) = 33 mm

CO/N=C(\C(=O)N[C@@H]1C(=O)N2C(C(=O)[O-])=C(C[N+]3(C)CCCC3)CS[C@H]12)c1csc(N)n1 [Cefepime]
C: inhibition zone of the antibiotic alone as a control (P. aeruginosa): 11 mm | C: inhibition zone of the antibiotic alone as a control (S. typhimurium): 23.5 mm

C[C@@H]1O[C@@H]1P(=O)(O)O [Fosfomycin]
C: inhibition zone of the antibiotic alone as a control (A. baumannii): 10 mm | C: inhibition zone of the antibiotic alone as a control (P. aeruginosa): 27 mm | C: inhibition zone of the antibiotic alone as a control (P. vulgaris): 11 mm | C: inhibition zone of the antibiotic alone as a control (S. typhimurium): 20.5 mm | C: inhibition zone of the antibiotic alone as a control (E. coli): 24 mm

NC[C@H]1O[C@H](O[C@H]2[C@H](O)[C@@H](O[C@H]3O[C@H](CO)[C@@H](O)[C@H](N)[C@H]3O)[C@H](N)C[C@@H]2N)[C@H](N)C[C@@H]1O [Tobramycin]
C: inhibition zone of the antibiotic alone as a control (S. aureus): 26 mm

CC[C@H]1OC(=O)[C@H](C)[C@@H](O[C@H]2C[C@@](C)(OC)[C@@H](O)[C@H](C)O2)[C@H](C)[C@@H](O[C@@H]2O[C@H](C)C[C@H](N(C)C)[C@H]2O)[C@](C)(O)C[C@@H](C)C(=O)[C@H](C)[C@@H](O)[C@]1(C)O [Erythromycin]
C: inhibition zone of the antibiotic alone as a control (S. aureus): 32 mm

Gentamycin [CN]
Diameter of inhibition zone, standard antibiotic disc [5]: CN (10) = 24 mm | Diameter of inhibition zone, standard antibiotic disc [6]: CN (10) = 30 mm

COc1c(N2C[C@@H]3CCCN[C@@H]3C2)c(F)cc2c(=O)c(C(=O)O)cn(C3CC3)c12 [Moxifloxacin]
C: inhibition zone of the antibiotic alone as a control (A. baumannii): 20 mm | C: inhibition zone of the antibiotic alone as a control (S. aureus): 33 mm | C: inhibition zone of the antibiotic alone as a control (P. aeruginosa): 22.5 mm | C: inhibition zone of the antibiotic alone as a control (P. vulgaris): 19. mm | C: inhibition zone of the antibiotic alone as a control (S. typhimurium): 30 mm | C: inhibition zone of the antibiotic alone as a control (E. coli): 31 mm

CO[C@H]1/C=C/O[C@@]2(C)Oc3c(C)c(O)c4c(O)c(c(/C=N/N5CCN(C)CC5)c(O)c4c3C2=O)NC(=O)/C(C)=C\C=C\[C@H](C)[C@H](O)[C@@H](C)[C@@H](O)[C@@H](C)[C@H](OC(C)=O)[C@@H]1C [Rifampicin]
C: inhibition zone of the antibiotic alone as a control (S. aureus): 34.5 mm

C[C@H]1COc2c(N3CCN(C)CC3)c(F)cc3c(=O)c(C(=O)O)cn1c23 [Levofloxacin]
C: inhibition zone of the antibiotic alone as a control (A. baumannii): 23 mm | C: inhibition zone of the antibiotic alone as a control (S. aureus): 27 mm | C: inhibition zone of the antibiotic alone as a control (P. aeruginosa): 27 mm | C: inhibition zone of the antibiotic alone as a control (P. vulgaris): 33 mm | C: inhibition zone of the antibiotic alone as a control (S. typhimurium): 30 mm | C: inhibition zone of the antibiotic alone as a control (E. coli): 35 mm

CN(C)[C@@H]1C(O)=C(C(N)=O)C(=O)[C@@]2(O)C(O)=C3C(=O)c4c(O)cccc4[C@@](C)(O)[C@H]3C[C@@H]12 [Tetracycline]
C: inhibition zone of the antibiotic alone as a control (A. baumannii): 11.5 mm | C: inhibition zone of the antibiotic alone as a control (P. aeruginosa): 11.5 mm | C: inhibition zone of the antibiotic alone as a control (P. vulgaris): 11. mm | C: inhibition zone of the antibiotic alone as a control (S. typhimurium): 18 mm | C: inhibition zone of the antibiotic alone as a control (E. coli): 17 mm

Source: patent US10751802B1, “Method of producing silver nanoparticles using red sand” (KING SAUD UNIVERSITY, priority 2019, dated 2020)
